For 24 compounds, EC50 and IC50 results are on record in US11046686B2, “Thiadiazole IRAK4 compounds” (Gilead Sciences, Inc., priority 2018, dated 2021).

The structures appear in SMILES notation. Where two headings read alike, the source gives them in different places.

One assay has as its system TNFα. Briefly: IRAK4 Monocyte TNFα Cell Based Assay. Also noted: species or system human. The note with it: human monocytes, second part of Table 2, compounds 33-343, unit inferred, read-out: EC50 MONO TNF HTRF. A digest of the protocol: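 TNFα release quantified by HTRF (cryptate/XL665 antibody pair, overnight at RT) after 1 h compound pre-incubation (0.1% DMSO) and 4 h LPS challenge at 50 pg/ml, 37 °C, 5,000 monocytes per well. Signal ratio normalised between unstimulated (0%) and stimulated (100%) controls.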
In general terms: Time-resolved FRET reads energy transfer from a long-lived donor to a nearby acceptor.

A further assay deals with IRAK4 enzyme (Homo sapiens (Human), UniProt Q9NWZ3). The assay is described as follows: IRAK4 Biochemical Assay (TR-FRET, STK1 KinEASE). The procedure, abridged: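 TR-FRET endpoint (KinEASE STK1): phosphopeptide detected with cryptate antibody and tracer after EDTA quench, ratio 665/615 nm, normalized to no-inhibitor wells as % inhibition. Reaction: 0.75 nM IRAK4, […] peptide, 500 μM ATP, pH 7.0 HEPES, 120 min room temperature, after 15 min compound preincubation with enzyme.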

[1] abbreviates: second part of Table 2, compounds 33-343, unit inferred, read-out: IC50 IRAK4-HTBS.

As usually defined, the EC50 is the concentration giving half of the maximal effect. The IC50 is the concentration needed to halve the response being measured.

Sequence of IRAK4 enzyme (Q9NWZ3 whole entry): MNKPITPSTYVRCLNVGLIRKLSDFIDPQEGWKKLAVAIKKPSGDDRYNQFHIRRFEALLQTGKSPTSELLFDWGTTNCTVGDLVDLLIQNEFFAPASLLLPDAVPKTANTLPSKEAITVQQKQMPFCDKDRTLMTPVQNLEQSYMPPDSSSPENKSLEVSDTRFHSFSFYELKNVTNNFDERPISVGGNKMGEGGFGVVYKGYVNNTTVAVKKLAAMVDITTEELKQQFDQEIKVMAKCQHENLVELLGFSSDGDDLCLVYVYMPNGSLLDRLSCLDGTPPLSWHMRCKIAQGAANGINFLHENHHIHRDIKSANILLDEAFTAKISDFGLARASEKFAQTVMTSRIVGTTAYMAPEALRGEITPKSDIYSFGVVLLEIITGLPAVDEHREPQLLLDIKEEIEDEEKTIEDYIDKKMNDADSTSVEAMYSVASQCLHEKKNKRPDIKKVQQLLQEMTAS

With `C[C@]1(O)CC[C@@H](c2nnc(-c3cnc(-c4ccc5cc(C#N)cnn45)cc3NC3COC3)s2)CC1` [Example 208, 7-(5-(5-((1s,4s)-4-hydroxy-4-methylcyclohexyl)-1,3,4-thiadiazol-2-yl)-4-(oxetan-3-ylamino)pyridin-2-yl)pyrrolo[1,2-b]pyridazine-3-carbonitrile], the EC50 in the assay on TNFα was determined as 13.6 nM. The half-inhibitory concentration (IC50) at IRAK4 enzyme (setting [1]) turned out to be 0.67 nM.
Consider `CC(C)Nc1cc(-c2ccc3cc(C#N)cnn23)ncc1-c1nncs1` [Example 211, 7-(4-(isopropylamino)-5-(1,3,4-thiadiazol-2-yl)pyridin-2-yl)pyrrolo[1,2-b]pyridazine-3-carbonitrile], for which the EC50 with TNFα (Homo sapiens, Monocyte) came to 78.2 nM. On IRAK4 enzyme (setting [1]), the half-maximal inhibitory concentration (IC50) was 0.98 nM.
On to `CC(C)Nc1cc(-c2ccc3cc(C#N)cnn23)ncc1-c1nnc(CCN)s1` [Example 212, 7-(5-(5-(2-aminoethyl)-1,3,4-thiadiazol-2-yl)-4-(isopropylamino)pyridin-2-yl)pyrrolo[1,2-b]pyridazine-3-carbonitrile], for which the EC50 in the assay on TNFα (Homo sapiens, Monocyte) was found to be 305 nM. At IRAK4 enzyme (setting [1]), the IC50 turned out to be 1.01 nM.
As for `CC(C)Nc1cc(-c2ccc3cc(C#N)cnn23)ncc1-c1nnc(C(=O)N2CCC[C@@H]2CO)s1` [Example 214, (R)-7-(5-(5-(2-(hydroxymethyl)pyrrolidine-1-carbonyl)-1,3,4-thiadiazol-2-yl)-4-(isopropylamino)pyridin-2-yl)pyrrolo[1,2-b]pyridazine-3-carbonitrile], the EC50 with TNFα (Homo sapiens, Monocyte) amounted to 33.2 nM. Besides, half-maximal inhibition against IRAK4 enzyme (IC50) required 0.46 nM.
As for `CC(C)Nc1cc(-c2ccc3cc(C#N)cnn23)ncc1-c1nnc(C(=O)N2CC[C@H](CO)C2)s1` [Example 221, (S)-7-(5-(5-(3-(hydroxymethyl)pyrrolidine-1-carbonyl)-1,3,4-thiadiazol-2-yl)-4-(isopropylamino)pyridin-2-yl)pyrrolo[1,2-b]pyridazine-3-carbonitrile], the EC50 in the assay with TNFα (Homo sapiens, Monocyte) came out at 2320 nM. This compound also returned an IC50 against IRAK4 enzyme of 0.92 nM.
The matching figures for `CC(C)Nc1cc(-c2ccc3cc(C#N)cnn23)ncc1-c1nnc(C(=O)N2CC[C@@H](NC(=O)OC(C)(C)C)C2)s1` [Example 222, tert-butyl (R)-(1-(5-(6-(3-cyanopyrrolo[1,2-b]pyridazin-7-yl)-4-(isopropylamino)pyridin-3-yl)-1,3,4-thiadiazole-2-carbonyl)pyrrolidin-3-yl)carbamate]: 1780 nM and 1.79 nM.
Taken in the same sequence, the figures for `CC(C)Nc1cc(-c2ccc3cc(C#N)cnn23)ncc1-c1nnc(C(=O)N2CC[C@H](NC(=O)OC(C)(C)C)C2)s1` [Example 223, tert-butyl (S)-(1-(5-(6-(3-cyanopyrrolo[1,2-b]pyridazin-7-yl)-4-(isopropylamino)pyridin-3-yl)-1,3,4-thiadiazole-2-carbonyl)pyrrolidin-3-yl)carbamate] were 1360 nM and 1.43 nM.
For the compound `CC(=O)NC12CCC(c3nnc(-c4cnc(-c5ccc6cc(C#N)cnn56)cc4NC(C)C)s3)(CC1)C2` [Example 284, N-(4-(5-(6-(3-cyanopyrrolo[1,2-b]pyridazin-7-yl)-4-(isopropylamino)pyridin-3-yl)-1,3,4-thiadiazol-2-yl)bicyclo[2.2.1]heptan-1-yl)acetamide], in the assay with TNFα (Homo sapiens, Monocyte), the EC50 turned out to be 17.6 nM. For the same compound, on IRAK4 enzyme, the midpoint of inhibition, the IC50, lay at 0.69 nM.
Turning to `CC(C)Nc1cc(-c2ccc3cc(C#N)cnn23)ncc1-c1nnc(N2CC(C)(O)C2)s1` [Example 286, 7-(5-(5-(3-hydroxy-3-methylazetidin-1-yl)-1,3,4-thiadiazol-2-yl)-4-(isopropylamino)pyridin-2-yl)pyrrolo[1,2-b]pyridazine-3-carbonitrile], in the assay with TNFα (Homo sapiens, Monocyte), the EC50 amounted to 21.4 nM. For the same compound, the IC50 at IRAK4 enzyme was 0.63 nM.
As to `CC(=O)NC12CCC(c3nnc(-c4cnc(-c5ccc6cc(C#N)cnn56)cc4NC(C)C)s3)(C1)C2` [Example 288, N-(4-(5-(6-(3-cyanopyrrolo[1,2-b]pyridazin-7-yl)-4-(isopropylamino)pyridin-3-yl)-1,3,4-thiadiazol-2-yl)bicyclo[2.1.1]hexan-1-yl)acetamide], the EC50 in the assay on TNFα (Homo sapiens, Monocyte) was 19.8 nM. On IRAK4 enzyme, this compound had an IC50 of 0.72 nM.
For `CC(C)Nc1cc(-c2ccc3cc(C#N)cnn23)ncc1-c1nnc(N2CC3CCC(C3)C2)s1` [Example 291, 7-(5-(5-(3-azabicyclo[3.2.1]octan-3-yl)-1,3,4-thiadiazol-2-yl)-4-(isopropylamino)pyridin-2-yl)pyrrolo[1,2-b]pyridazine-3-carbonitrile], in the assay on TNFα (Homo sapiens, Monocyte), the concentration for a half-maximal effect (EC50) was determined as 59.3 nM. Moreover, the IC50 at IRAK4 enzyme was found to be 1.78 nM.
For `CC(C)Nc1cc(-c2ccc3cc(C#N)cnn23)ncc1-c1nnc(N2CC3(CCO3)C2)s1` [Example 293, 7-(5-(5-(1-oxa-6-azaspiro[3.3]heptan-6-yl)-1,3,4-thiadiazol-2-yl)-4-(isopropylamino)pyridin-2-yl)pyrrolo[1,2-b]pyridazine-3-carbonitrile], the EC50 in the assay on TNFα (Homo sapiens, Monocyte) came to 365 nM. Further, the IC50 against IRAK4 enzyme turned out to be 1.52 nM.
For the compound `CC(C)Nc1cc(-c2ccc3cc(C#N)cnn23)ncc1-c1nnc(N2CC3CCCC(C3)C2)s1` [Example 295, 7-(5-(5-(3-azabicyclo[3.3.1]nonan-3-yl)-1,3,4-thiadiazol-2-yl)-4-(isopropylamino)pyridin-2-yl)pyrrolo[1,2-b]pyridazine-3-carbonitrile], the EC50 in the assay with TNFα (Homo sapiens, Monocyte) was 1000 nM. For the same compound, at IRAK4 enzyme, the midpoint of inhibition, the IC50, lay at 57.7 nM.
The matching figures for `CC(=O)N[C@@H]1CCCN(c2nnc(-c3cnc(-c4ccc5cc(C#N)cnn45)cc3NC(C)C)s2)C1` [Example 296, (R)-N-(1-(5-(6-(3-cyanopyrrolo[1,2-b]pyridazin-7-yl)-4-(isopropylamino)pyridin-3-yl)-1,3,4-thiadiazol-2-yl)piperidin-3-yl)acetamide]: 1000 nM and 1.02 nM.
In the case of `CC(C)Nc1cc(-c2ccc3cc(C#N)cnn23)ncc1-c1nnc(N2CC(O)(C(F)(F)F)C2)s1` [Example 297, 7-(5-(5-(3-hydroxy-3-(trifluoromethyl)azetidin-1-yl)-1,3,4-thiadiazol-2-yl)-4-(isopropylamino)pyridin-2-yl)pyrrolo[1,2-b]pyridazine-3-carbonitrile], the EC50 in the assay on TNFα (Homo sapiens, Monocyte) is 10 nM. On IRAK4 enzyme, this compound yielded an IC50 of 0.67 nM.
Regarding `CC(=O)NC1CCCN(c2nnc(-c3cnc(-c4ccc5cc(C#N)cnn45)cc3NC(C)C)s2)CC1` (stereo not drawn) [Example 298, N-(1-(5-(6-(3-cyanopyrrolo[1,2-b]pyridazin-7-yl)-4-(isopropylamino)pyridin-3-yl)-1,3,4-thiadiazol-2-yl)azepan-4-yl)acetamide], in the assay with TNFα (Homo sapiens, Monocyte), the 50% effective concentration (EC50) came to 36.3 nM. Moreover, it took 0.61 nM to reach half-maximal inhibition on IRAK4 enzyme (IC50).
In the case of `CC(=O)N[C@H]1CCCN(c2nnc(-c3cnc(-c4ccc5cc(C#N)cnn45)cc3NC(C)C)s2)C1` [Example 299, (S)-N-(1-(5-(6-(3-cyanopyrrolo[1,2-b]pyridazin-7-yl)-4-(isopropylamino)pyridin-3-yl)-1,3,4-thiadiazol-2-yl)piperidin-3-yl)acetamide], the half-maximal effective concentration (EC50) in the assay with TNFα (Homo sapiens, Monocyte) was 41.6 nM. In addition, at IRAK4 enzyme, half-maximal inhibition (IC50) required 0.52 nM.
As to `CC(=O)N1C[C@H]2C[C@@H]1CN2c1nnc(-c2cnc(-c3ccc4cc(C#N)cnn34)cc2NC(C)C)s1` [Example 303, 7-(5-(5-((1R,4R)-5-acetyl-2,5-diazabicyclo[2.2.1]heptan-2-yl)-1,3,4-thiadiazol-2-yl)-4-(isopropylamino)pyridin-2-yl)pyrrolo[1,2-b]pyridazine-3-carbonitrile], the EC50 in the assay with TNFα (Homo sapiens, Monocyte) is 12.5 nM. Further, the IC50 at IRAK4 enzyme is 0.51 nM.
For the compound `CNC(=O)C1CCN(c2nnc(-c3cnc(-c4ccc5cc(C#N)cnn45)cc3NC(C)C)s2)CC1` [Example 305, 1-(5-(6-(3-cyanopyrrolo[1,2-b]pyridazin-7-yl)-4-(isopropylamino)pyridin-3-yl)-1,3,4-thiadiazol-2-yl)-N-methylpiperidine-4-carboxamide], the EC50 in the assay on TNFα (Homo sapiens, Monocyte) worked out at 15.9 nM. The same compound yielded an IC50 on IRAK4 enzyme of 1.02 nM.
Consider `CNc1cc(-c2ccc3cc(C#N)cnn23)ncc1-c1nnc(N2CC[C@@H](NC(C)=O)C(F)(F)C2)s1` [Example 306, (R)-N-(1-(5-(6-(3-cyanopyrrolo[1,2-b]pyridazin-7-yl)-4-(methylamino)pyridin-3-yl)-1,3,4-thiadiazol-2-yl)-3,3-difluoropiperidin-4-yl)acetamide], for which the EC50 with TNFα (Homo sapiens, Monocyte) turned out to be 18.4 nM. This compound also returned a 50% inhibitory concentration (IC50) on IRAK4 enzyme of 1.21 nM.
The matching figures for `CNc1cc(-c2ccc3cc(C#N)cnn23)ncc1-c1nnc(N2CC[C@H](NC(C)=O)C(F)(F)C2)s1` [Example 307, (S)-N-(1-(5-(6-(3-cyanopyrrolo[1,2-b]pyridazin-7-yl)-4-(methylamino)pyridin-3-yl)-1,3,4-thiadiazol-2-yl)-3,3-difluoropiperidin-4-yl)acetamide]: 53.7 nM and 0.83 nM.
For the compound `CC(C)Nc1cc(-c2ccc3cc(C#N)cnn23)ncc1-c1nnc(N2CCC(C#N)CC2)s1` [Example 310, 7-(5-(5-(4-cyanopiperidin-1-yl)-1,3,4-thiadiazol-2-yl)-4-(isopropylamino)pyridin-2-yl)pyrrolo[1,2-b]pyridazine-3-carbonitrile], in the assay on TNFα (Homo sapiens, Monocyte), the EC50 was found to be 25.9 nM. Moreover, at IRAK4 enzyme, inhibition was half-maximal at 0.66 nM (IC50).
For the compound `CC(=O)NC1CC=C(c2nnc(-c3cnc(-c4ccc5cc(C#N)cnn45)cc3NC(C)C)s2)CC1` (stereo not drawn) [Example 313, N-(4-(5-(6-(3-cyanopyrrolo[1,2-b]pyridazin-7-yl)-4-(isopropylamino)pyridin-3-yl)-1,3,4-thiadiazol-2-yl)cyclohex-3-en-1-yl)acetamide], the EC50 with TNFα (Homo sapiens, Monocyte) was 48.6 nM. At IRAK4 enzyme, this compound registered an IC50 of 1.47 nM.
For the compound `CC(C)Nc1cc(-c2ccc3cc(C#N)cnn23)ncc1-c1nnc([C@H]2CC[C@H](NC(=O)C3(C)COC3)CC2)s1` [Example 314, N-((1r,4r)-4-(5-(6-(3-cyanopyrrolo[1,2-b]pyridazin-7-yl)-4-(isopropylamino)pyridin-3-yl)-1,3,4-thiadiazol-2-yl)cyclohexyl)-3-methyloxetane-3-carboxamide], in the assay on TNFα (Homo sapiens, Monocyte), the EC50 worked out at 10.1 nM. Besides, at IRAK4 enzyme, it took 0.55 nM to reach half-maximal inhibition (IC50).
